Test results: patent US20090312352A1 (priority 2004, published 2009)

Key:
Experiment in all cases: biochemical
[1] = target: T1, YopH (Yersinia pestis, UniProt O68720); type: biochemical
[2] = target: CD45 (Homo sapiens, UniProt P08575)
[3] = target: PTP 1B (Homo sapiens, UniProt P18031)
[4] = target: VH1 (Vaccinia virus, UniProt P07239)
[5] = target: T1, YopH; type: binding
[6] = target: VHX (Homo sapiens, UniProt Q9NRW4)
[7] = target: T1, YopH
[8] = target: VHR (Homo sapiens, UniProt P51452)
[9] = target: LAR (Homo sapiens, UniProt P10586)
[10] = target: TCPTP (Homo sapiens, UniProt P17706)
[11] = target: HePTP (Homo sapiens, UniProt P35236)
[12] = target: LMPTP B (Homo sapiens, UniProt P24666)

O=C1C=CC(=O)C(c2ccc(C(=O)O)cc2)=C1 [4-(3,6-dioxocyclohexa-1,4-dienyl)benzoic acid]
time-dependence of inhibition [1]: clearly showed a time-dependent inhibition

O=C1NC(=O)/C(=C\c2ccc(-c3cccc([N+](=O)[O-])c3)o2)S1 [Compound 5376305]
Ki ([1]; Ki(u)): 50 µM

N=C1NC(=O)/C(=C\c2ccc(-c3cccc(C(=O)O)c3)o2)S1 [Compound 5377688]
Ki ([1]; Ki(c)): 19.2 µM

O=C1NC(=O)/C(=C\c2ccco2)S1 [Compound 5377816]
YopH inhibition (in words) [1]: complete loss of YopH inhibition

O=C1NC(=O)C(=Cc2ccc(-c3ccc(O)c(C(=O)O)c3)o2)C(=O)N1 [Compound 5377894]
fold higher Ki value [1]: 12.5 fold | Ki ([1]; Ki): 4.1 µM | Ki ([1]; Ki(c)): 4.13 µM

O=C(O)c1cc(-c2ccc(C=C3C(=O)c4ccccc4C3=O)o2)ccc1O [Compound 5378650]
Ki ([1]; Ki(c)): 3.2 µM

O=C(O)c1cc(-c2ccc(/C=N/n3cnnc3)o2)ccc1O [Compound 5381181]
Ki ([1]; Ki(c)): 3.73 µM

O=C1NC(=S)NC(=O)C1=Cc1ccc(-c2ccc(C(=O)O)c(O)c2)o1 [Compound 5557271, 4-(5-((tetrahydro-4,6-dioxo-2-thioxopyrimidin-5(6H)-ylidene)methyl)furan-2-yl)-salicylic acid]
IC50 [2]: 1.7 µM | IC50 [3]: 9.7 µM | IC50 [4]: > 250 µM | Kd [5]: 0.33 µM | fold lower inhibitory constant than salicylic acid alone [1]: 2667 fold | Ki ([1]; Ki): 0.33 µM | Ki ([1]; Ki(c)): 0.33 µM | IC50 [6]: > 250 µM | IC50 [7]: 1.4 µM | IC50 [8]: 34.7 µM | IC50 [9]: 10.9 µM | IC50 [10]: 11 µM | IC50 [11]: 32.4 µM | IC50 [12]: > 250 µM

O=C1NC(=S)S/C1=C/c1ccc(-c2ccc(C(=O)O)cc2)o1 [Compound 5660015]
Ki ([1]; Ki(c)): 19.7 µM

CCN1C(=O)/C(=C\c2ccc(-c3ccc(O)cc3)o2)SC1=S [Compound 5667408]
Ki ([1]; Ki(c)): 38.6 µM | Ki ([1]; Ki(u)): 55.7 µM

Cc1cc2nc3s/c(=C\c4ccc(-c5ccc(O)c(C(=O)O)c5)o4)c(=O)n3c2cc1C [Compound 5670901]
IC50 [2]: 2.5 µM | IC50 [3]: 7 µM | IC50 [4]: > 250 µM | Kd [5]: 0.54 µM | Ki ([1]; Ki): 0.92 µM | Ki ([1]; Ki(c)): 0.922 µM | Ki ([1]; Ki(u)): 8.3 µM | IC50 [6]: > 250 µM | IC50 [7]: 2 µM | IC50 [8]: 21.2 µM | IC50 [9]: 7.7 µM | IC50 [10]: 11 µM | IC50 [11]: 32.6 µM | IC50 [12]: > 250 µM

Cc1cc(C)c2nc3s/c(=C\c4ccc(-c5ccc(O)c(C(=O)O)c5)o4)c(=O)n3c2c1 [Compound 5675844]
Ki ([1]; Ki): 8.8 µM | Ki ([1]; Ki(c)): 8.82 µM | Ki ([1]; Ki(u)): 10.9 µM

O=C(Cn1nnc(-c2ccccc2)n1)N/N=C/c1ccc(-c2ccc(O)c(C(=O)O)c2)o1 [Compound 5680029]
IC50 [2]: 15.1 µM | IC50 [3]: 14.3 µM | IC50 [4]: > 250 µM | Kd [5]: 1.04 µM | Ki ([1]; Ki(c)): 2.8 µM | Ki ([1]; Ki(u)): 8.9 µM | IC50 [6]: 34.9 µM | IC50 [7]: 5.1 µM | IC50 [8]: 31.6 µM | IC50 [9]: 35.8 µM | IC50 [10]: 22.7 µM | IC50 [11]: 47.9 µM | IC50 [12]: > 250 µM

O=C(O)c1cccc(-c2ccc(/C=C3\SC(=S)N(Cc4ccccc4)C3=O)o2)c1 [Compound 5680282]
Ki ([1]; Ki(c)): 17.7 µM | Ki ([1]; Ki(u)): 42.8 µM

O=C1NC(=S)S/C1=C\c1ccc(-c2cc([N+](=O)[O-])ccc2O)o1 [Compound 5740279]
Ki ([1]; Ki(c)): 17.1 µM | Ki ([1]; Ki(u)): 16.5 µM

COc1ccc(C2=CC(=O)C=CC2=O)cc1 [Compound 5760449]
Ki ([1]; Ki(c)): 6.52 ± 1.19 µM | Ki ([1]; Ki(u)): 8.02 ± 0.589 µM

O=C1NC(=O)/C(=C/c2ccc(-c3ccc(O)c(C(=O)O)c3)o2)S1 [Compound 5842540]
IC50 [2]: 5.7 µM | IC50 [3]: 12 µM | IC50 [4]: > 250 µM | Kd [5]: 1.34 µM | Ki ([1]; Ki(c)): 1.13 ± 0.198 µM | Ki ([1]; Ki(u)): 14.1 ± 4.21 µM | IC50 [6]: 38.5 µM | IC50 [7]: 3.9 µM | IC50 [8]: 27.5 µM | IC50 [9]: 12.2 µM | IC50 [10]: 30.2 µM | IC50 [11]: 34.5 µM | IC50 [12]: 215 µM

CSCCC(C(=O)O)N1C(=O)/C(=C\c2ccc(-c3ccc([N+](=O)[O-])cc3)o2)SC1=S (centres unmarked) [Compound 5850330]
IC50 [2]: 38.7 µM | IC50 [3]: 38.8 µM | IC50 [4]: > 250 µM | Ki ([1]; Ki(c)): 9.78 ± 3.32 µM | IC50 [6]: 106 µM | IC50 [7]: 11.5 µM | IC50 [8]: 49 µM | IC50 [9]: 20.8 µM | IC50 [10]: 197 µM | IC50 [11]: 95.9 µM | IC50 [12]: > 300 µM

c1ccc(Nc2nc(-c3ccccc3)[n+](-c3ccccc3)s2)cc1 [Compound 5858065]
Ki ([1]; Ki(c)): 1.87 ± 0.924 µM | Ki ([1]; Ki(u)): 2.57 ± 0.563 µM

Cc1ccc(-c2ccc(/C=C3\SC(=S)NC3=O)o2)c([N+](=O)[O-])c1 [Compound 6145062]
Ki ([1]; Ki(u)): 94.1 µM

Cc1cc(C(=O)O)ccc1-c1ccc(/C=C2\SC(=S)NC2=O)o1 [Compound 6338530]
Ki ([1]; Ki(c)): 11.4 µM | Ki ([1]; Ki(u)): 84.2 µM

O=C1NC(=S)S/C1=C\c1ccc(-c2cc(C(=O)O)ccc2Cl)o1 [Compound 6431206]
Ki ([1]; Ki(c)): 16.2 µM

COc1ccc(-c2ccc(/C=C3\SC(=S)NC3=O)o2)cc1[N+](=O)[O-] [Compound 6701338]
Ki ([1]; Ki(c)): 6.53 µM | Ki ([1]; Ki(u)): 9.8 µM

O=Cc1ccc(-c2ccc(C(=O)O)c(O)c2)o1 [Compound 8164075]
YopH inhibition (in words) [1]: still capable of inhibiting YopH in the low micromolar range | Ki ([1]; Ki(c)): 7.89 µM | Ki ([1]; Ki(u)): 61.2 µM

O=C(O)c1ccccc1O [salicylic acid, reference compound]
Ki ([1]; Ki): 882 µM
